Data as given in PubChem BioAssay AID2060905 (Molecular Pharmacology Branch, DTP, NCI, 2025).
pIC50: −log10 of the molar value.

Test system: 282377-053-R-J1-PDC complex spheroid viability
Experiment: Anticancer human tumor 282377-053-R-J1-PDC patient-derived colon adenocarcinoma cell line growth inhibition [RAS]
Conditions: for pIC50: curve of first compound; for viability, T/C: stronger effect = lower value
Description: RAS pathway inhibitors in Combinations in Complex Spheroids
A high-throughput screen of multi-cell type tumor spheroids was designed to identify active combinations of RAS pathway inhibitors and targeted small molecules. Complex spheroids include a stromal component modeled by human endothelial cells (HUVEC) and fibroblasts modeled by human mesenchymal stem cells (MSCs). The concentration ranges selected for each drug and investigational agent were based upon clinically achievable concentrations if the clinical Cmax of the agent was known.
Compounds. The drugs and investigational agents: abemaciclib (NSC768073), cobimetinib (NSC768068), divarasib (GDC6063, NSC841802), docetaxel (NSC628503), GDC-1971 (RLY-1971, NSC841576), gemcitabine (NSC613327), inavolisib (NSC800729), ipatasertib (NSC767898), KB-0742 (NSC834161), MRTX-1133 (NSC836407), osimertinib (NSC779217), RMC-4630 (NSC839698), RMC-6236 (NSC851965), RMC-6291 (NSC852671), Ro-3306 (NSC812927), sapanisertib (NSC764658), SN-38 (NSC673596), staurosporine (NSC755774), SY5609 (NSC837396), and tovorafenib (DAY101, NSC766906), were obtained from the National Cancer Institute (NCI) Developmental Therapeutics Program Chemical Repository. The FDA-approved anticancer drug set is available from the NCI Developmental Therapeutics Program. […] The stock solutions were prepared in dimethyl sulfoxide (DMSO, Sigma-Aldrich, St. Louis, MO, cat. D2650) at 800-fold the tested concentration and stored at -70 degrees C prior to their use. All drugs and investigational agents were tested over a range starting from a high concentration at or near the clinical Cmax and decreasing in half-log increments. If the clinical Cmax for an agent had not been determined, the highest concentration tested was 10 microM.
Cell Culture. All cells were maintained in an incubator at 37 degrees C and 5% CO2 with 95% humidity. The PDC lines were cultured according to standard operating procedures established by the NCI PDMR. All PDCs were thawed and cultured in Matrigel-coated flasks prepared with a working solution of 1X Ham's F-12 nutrient mix, without supplementation (Invitrogen, Waltham, MA, cat. 11765054), 100 U/mL penicillin-streptomycin (Invitrogen, cat. 15140122), and 2.5% Matrigel (Corning Inc., Corning, NY, cat. 354248) for the first three passages. The 362531-283-R-J2-PDC and 782815-120-R-J1-PDC lines were cultured in 6C/Colon 1B media, which includes advanced DMEM/F-12 (Thermo Fisher Scientific, cat. 12634028), 10 mM HEPES (Thermo Fisher Scientific, cat. 15630080), 1X GlutaMAX supplement (Thermo Fisher Scientific, cat. 35050061), 0.1 mg/mL primocin (InvivoGen, San Diego, CA, cat. ant-pm-2), 10% defined fetal bovine serum, heat inactivated (HyClone Laboratories Inc., Logan, UT, cat. SH30070.03HI), 50% L-WRN conditioned media (ATCC, cat. CRL-3276), 1.25 mM N-Acetyl-L-cysteine (Sigma-Aldrich, cat. A9165), 10 mM nicotinamide (Sigma-Aldrich, cat. N0636), 1X B-27 supplement (Thermo Fisher Scientific, cat. 17504044), 1X N-2 supplement (Thermo Fisher Scientific, cat. 17502048), 50 ng/mL human EGF (Thermo Fisher Scientific, cat. PHG0311), and 10 microM Y-27632 dihydrochloride (Tocris Bioscience, cat. 1254). The K12877-001-R-J1-PDC line was cultured in 6I media, which includes all 6C/Colon 1B media plus 10 ng/mL human FGF-10 (PeproTech, cat. 100-26), 1 ng/mL human FGF-2 (PeproTech, cat. 100-18B), 1 µM prostaglandin E2 (Tocris Bioscience, cat. 2296), […] hydrocortisone (Sigma-Aldrich, cat. H4001), and […] bovine insulin (Sigma-Aldrich, cat. I6634). The K86415-001-R-J1-PDC line was cultured in 6D media, which includes all 6C/Colon 1B media components minus the L-WRN conditioned media. The 485176-168-R4-J1-PDC was cultured in PANC media, which includes all 6C/Colon 1B media plus 100 ng/mL human FGF-10 (PeproTech, cat. 100-26), 500 nM SB-431542 (Selleckchem, cat. S1067), and 10 nM gastrin (Tocris Bioscience, cat. 3006). […]
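Also: spheroids exposed to agents for seven days before readout.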
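For viability, T/C in this document: luminescence viability as percent of DMSO vehicle control wells.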

pIC50 (second compound 0.0316 µM): > 7.50 | pIC50 (second compound 0.1 µM): > 7.50 | pIC50 (second compound 0.316 µM): > 7.50 | pIC50 (second compound 1 µM): > 7.50 | pIC50 (second compound 3.16 µM): > 7.50 | pIC50 (second compound 10 µM): > 7.50
Compound: CC(=O)OC12COC1CC(O)C1(C)C(=O)C(O)C3=C(C)C(OC(=O)C(O)C(NC(=O)OC(C)(C)C)c4ccccc4)CC(O)(C(OC(=O)c4ccccc4)C21)C3(C)C (configuration not stated) + C#Cc1c(F)ccc2cc(O)cc(-c3ncc4c(N5CC6CCC(C5)N6)nc(OCC56CCCN5CC(F)C6)nc4c3F)c12
viability, T/C (second compound 0.0316 µM, first compound 0.0316 µM): 21.9% | viability, T/C (second compound 0.0316 µM, first compound 0.1 µM): 20.5% | viability, T/C (second compound 0.0316 µM, first compound 0.316 µM): 23.9% | viability, T/C (second compound 0.0316 µM, first compound 1 µM): 29.7% | viability, T/C (second compound 0.0316 µM, first compound 3.16 µM): 43.1% | viability, T/C (second compound 0.0316 µM, first compound 10 µM): 52.1% | viability, T/C (second compound 0.1 µM, first compound 0.0316 µM): 25.4% | viability, T/C (second compound 0.1 µM, first compound 0.1 µM): 23.1% | viability, T/C (second compound 0.1 µM, first compound 0.316 µM): 23.4% | viability, T/C (second compound 0.1 µM, first compound 1 µM): 28.7% | viability, T/C (second compound 0.1 µM, first compound 3.16 µM): 49.8% | viability, T/C (second compound 0.1 µM, first compound 10 µM): 69.4% | viability, T/C (second compound 0.316 µM, first compound 0.0316 µM): 28.6% | viability, T/C (second compound 0.316 µM, first compound 0.1 µM): 24.7% | viability, T/C (second compound 0.316 µM, first compound 0.316 µM): 26.7% | viability, T/C (second compound 0.316 µM, first compound 1 µM): 30.2% | viability, T/C (second compound 0.316 µM, first compound 3.16 µM): 47.4% | viability, T/C (second compound 0.316 µM, first compound 10 µM): 67.2% | viability, T/C (second compound 1 µM, first compound 0.0316 µM): 32.6% | viability, T/C (second compound 1 µM, first compound 0.1 µM): 25% | viability, T/C (second compound 1 µM, first compound 0.316 µM): 26.6% | viability, T/C (second compound 1 µM, first compound 1 µM): 33% | viability, T/C (second compound 1 µM, first compound 3.16 µM): 60.6% | viability, T/C (second compound 1 µM, first compound 10 µM): 61.5% | viability, T/C (second compound 3.16 µM, first compound 0.0316 µM): 27.9% | viability, T/C (second compound 3.16 µM, first compound 0.1 µM): 29.2% | viability, T/C (second compound 3.16 µM, first compound 0.316 µM): 31.4% | viability, T/C (second compound 3.16 µM, first compound 1 µM): 39.6% | viability, T/C (second compound 3.16 µM, first compound 3.16 µM): 58.5% | viability, T/C (second compound 3.16 µM, first compound 10 µM): 66% | viability, T/C (second compound 10 µM, first compound 0.0316 µM): 32.1% | viability, T/C (second compound 10 µM, first compound 0.1 µM): 31.8% | viability, T/C (second compound 10 µM, first compound 0.316 µM): 41.6% | viability, T/C (second compound 10 µM, first compound 1 µM): 49.3% | viability, T/C (second compound 10 µM, first compound 3.16 µM): 77.7% | viability, T/C (second compound 10 µM, first compound 10 µM): 78.7%
